According to patent publication US20230348376A1 (TEIJIN PHARMA LIMITED, priority 2020, published 2023):

What was measured:
[1] = system: mouse neural stem cells (NSCs); test: Promoting activity in oligodendrocyte differentiation of mouse neural stem cell (GalC immunostaining); type: cell-based; conditions: for Gal/C positive ratio Average value: day 10, N=5
Protocol: To NSC basal medium (100 mL) included in this product, B27 (1 mL), Penicillin-Streptomycin (1 mL), Glutamine (1 mL), bFGF (20 μL), EGF (10 μL), and Heparin (100 μL) were added to prepare the growth medium. Mouse neural stem cells were reconstituted in a T-25 flask using the growth medium and proliferated as a neurosphere by suspension culture. The cells were expanded by passaging at a split ratio=1:2 in a CO2 incubator (5% CO2, 37° C., wet) to obtain the required number of cells. ACCUTASE (Innovative Cell Technologies, Cat. No. AT104) was used as the passage reagent.
The differentiation medium containing test substance was prepared to a target final concentration by diluting a solution of 20 mM compound in DMSO to 10-fold with DMSO and then to 2×10^5-fold with the differentiation medium. Additive-free differentiation medium for control was prepared by diluting DMSO to 2×10^5-fold with the differentiation medium to be a final concentration of 5×10^−5%.
The mouse neural stem cells were seeded on a poly-L-Lysine/Laminin-coated 96-well plate at a cell density of 2.0×10^4 cells/100 μL/well using the differentiation medium and the culture was started in a CO2 incubator (5% CO2, 37° C., wet). The next day, the medium was replaced with the differentiation medium containing a test substance or an additive-free differentiation medium for control, and evaluation of the test substance (N=5) was started (day 0). The medium was replaced every other day by 60% of the medium in the wells. On day 10, cells were fixed and immunostained.
After the medium was removed, the cells were fixed by adding 100 μL of 4% paraformaldehyde-PBS and being incubated at room temperature for 30 minutes. Next, the cells were washed 3 times with PBS, 100 μL of 5% Goat Serum/PBS was added thereto, and the mixture was incubated at room temperature for 30 minutes to perform blocking and membrane permeation treatment. […] After the cells were washed 3 times with PBS, 100 μL of PBS was added to the wells, and the wells were photographed with fluorescence microscopy. Images were taken under the same condition in all wells, and blue fluorescence and green fluorescence were simultaneously photographed.
Using the hybrid cell counting software provided in the fluorescence microscope (Keyence, BZ-X700), co-localized spots of green fluorescence and blue fluorescence were extracted, and the number of these spots was defined as the total number of GalC-positive cells, and the oligodendrocyte differentiation ratio was calculated by the following calculation:the total number of GalC-positive cells/the number of nuclei (number of blue fluorescence spots). A significant difference test was performed by t-test between the additive-free group and the sample-added group.

human VDR = biological target: T1, human VDR (Homo sapiens, UniProt P11473); test: Evaluation of VDR transcription activity in human osteoblasts (HOS cells), luciferase reporter; conditions: Activity (EC50, VDR transcription activity), HOS cells transfected with human VDR, human RXRα and DR3 luciferase reporter; 21 hours
T1 sequence (P11473 1-427): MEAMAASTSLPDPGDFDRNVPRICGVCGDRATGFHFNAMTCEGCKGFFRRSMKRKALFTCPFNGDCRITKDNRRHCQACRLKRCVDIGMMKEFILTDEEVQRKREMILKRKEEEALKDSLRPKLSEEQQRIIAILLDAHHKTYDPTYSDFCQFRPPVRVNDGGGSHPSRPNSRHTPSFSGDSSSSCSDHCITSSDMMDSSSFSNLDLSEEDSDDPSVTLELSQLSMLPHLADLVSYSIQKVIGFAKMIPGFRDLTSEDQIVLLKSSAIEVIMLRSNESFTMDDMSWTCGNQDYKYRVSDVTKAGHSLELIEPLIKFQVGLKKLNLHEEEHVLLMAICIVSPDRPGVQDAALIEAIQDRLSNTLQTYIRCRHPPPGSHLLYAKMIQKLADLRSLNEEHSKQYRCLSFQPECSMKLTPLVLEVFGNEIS
T1 sequence (P19793 1-462 partner): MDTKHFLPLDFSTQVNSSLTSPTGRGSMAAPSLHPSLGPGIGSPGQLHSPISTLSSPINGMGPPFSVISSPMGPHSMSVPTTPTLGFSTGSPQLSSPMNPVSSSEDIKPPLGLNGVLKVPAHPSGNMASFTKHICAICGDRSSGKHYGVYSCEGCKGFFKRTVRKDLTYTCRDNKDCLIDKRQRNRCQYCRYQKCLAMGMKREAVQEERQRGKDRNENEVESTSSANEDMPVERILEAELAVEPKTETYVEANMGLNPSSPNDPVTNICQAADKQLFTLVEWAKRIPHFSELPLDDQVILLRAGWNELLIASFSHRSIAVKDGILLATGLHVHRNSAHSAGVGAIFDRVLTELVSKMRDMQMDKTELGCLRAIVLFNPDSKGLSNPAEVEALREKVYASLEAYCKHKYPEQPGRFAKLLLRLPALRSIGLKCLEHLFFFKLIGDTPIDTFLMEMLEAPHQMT

[2] = system: rat oligodendrocyte progenitor cells; test: Promotive activity of rat oligodendrocyte progenitor cell differentiation-1 (MBP gene expression, mRNA); type: cell-based; conditions: 4 days, MBP/β actin mRNA; for activation at 1 µM: Rattus norvegicus, Oligodendrocyte progenitor cell, 96 h, read-out: promotive activity at T3 base (MBP gene expression; DMSO 0%, T3 100%)
How it was run: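 Primary OPCs from 1-day-old SD rat forebrain, isolated by shaking off mixed glial cultures and seeded at 2×10^3 cells/well in B27/CNTF (10 ng/mL) differentiation medium with compound. MBP mRNA measured by one-step TaqMan real-time PCR and expressed as MBP/β-actin ratio.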

[3] = system: rat oligodendrocyte progenitor cells; test: Promotive activity of rat oligodendrocyte progenitor cell differentiation-2 (immunostaining of MBP); type: cell-based; conditions: vitamin D derivative 2 μM, T3 30 nM, 4 days
How it was run: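 Vitamin D derivatives scored as symbols for promoting differentiation, read out by MBP immunostaining. OPCs taken from supernatant after about 22 h shaking (37 °C, 200 rpm) in separation medium.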

[4] = Evaluation of brain penetration in mice (blood and brain concentration at brain Cmax); type: in vivo, mouse; conditions: 1 mg/kg single oral dose, C57BL/6J mice; for Concentration in blood (mean ± SD) at brain Cmax / Concentration in brain (mean ± SD) at brain Cmax: n=3; for Kp: male, C57BL/6J, mouse, brain/plasma, po, 1 mg/kg, read-out: Concentration in brain/in blood ratio at brain Cmax
How it was run: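 Male C57BL/6J mice (8 weeks, n=3) dosed orally once at 1 […] mg/kg; plasma and brain collected at 0.25, 0.5, 1, 2, 4 and 8 h. Compound extracted with acetonitrile from brain homogenate and plasma, quantified by LC/MS/MS.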

## C=C1/C(=C\C=C2/CCC[C@]3(C)[C@@H]([C@H](C)CCN4CCOC[C@@H]4C)CC[C@@H]23)C[C@@H](O)CC1O (stereo in doubt) [Compound D045, (1R,3R,Z)-5-(2-((1R,3aS,7aR,E)-7a-methyl-1-((R)-4-((S)-3-methylmorpholino)butan-2-yl)octahydro-4H-inden-4-ylidene)ethylidene)-4-methylenecyclohexane-1,3-diol]
[1]; 10 nM
  Gal/C positive ratio Average value: 11.46
[1]; 100 nM
  Gal/C positive ratio Average value: 12.01
[1]; 1000 nM
  Gal/C positive ratio Average value: 14.93
Human VDR
  EC50: 10 to 100 nM

## C=C1/C(=C\C=C2/CCC[C@]3(C)[C@@H]([C@H](C)CCCC(C)(C)O)CC[C@@H]23)C[C@@H](O)C[C@@H]1O [1α,25-dihydroxyvitamin D3, reference compound]
[1]; 1000 nM
  promoting activity in a Gal/C-positive oligodendrocyte differentiation: 1.5 times
[2]; 1 μM
  promotive activity at T3 base (MBP gene expression; DMSO 0%, T3 100%): 0%

## C[C@H](CN1CC[C@@H](C(F)F)C1)[C@H]1CC[C@H]2/C(=C/C=C3C[C@@H](O)C[C@H](O)C3)CCC[C@]12C [Compound B026, (1R,3R)-5-(2-((1R,3aS,7aR,E)-1-((S)-1-((R)-3-(difluoromethyl)pyrrolidin-1-yl)propan-2-yl)-7a-methyloctahydro-4H-inden-4-ylidene)ethylidene)cyclohexane-1,3-diol]
[2]
  activation at 1 µM: ≥ 20%
[3]; Test 1
  Mean (number of MBP-positive cells/number of Hoechst33342-positive cells): 0.38
[4]
  Concentration in blood (mean ± SD) at brain Cmax: 218 ± 31 nM
  Concentration in brain (mean ± SD) at brain Cmax: 384 ± 40 pmol/g
  Kp: 1.76
Human VDR
  EC50: 10 to 100 nM

## C=C1[C@H](O)CC(=C/C=C2\CCC[C@]3(C)[C@@H]([C@H](C)CN4CC[C@@H](C(F)F)C4)CC[C@@H]23)C[C@H]1O [Compound B027, (1R,3R)-5-(2-((1R,3aS,7aR,E)-1-((S)-1-((R)-3-(difluoromethyl)pyrrolidin-1-yl)propan-2-yl)-7a-methyloctahydro-4H-inden-4-ylidene)ethylidene)-2-methylenecyclohexane-1,3-diol]
[2]
  activation at 1 µM: ≥ 20%
[3]; Test 1
  Mean (number of MBP-positive cells/number of Hoechst33342-positive cells): 0.29
[4]
  Concentration in blood (mean ± SD) at brain Cmax: 126 ± 14 nM
  Concentration in brain (mean ± SD) at brain Cmax: 414 ± 40 pmol/g
  Kp: 3.29
Human VDR
  EC50: 1 to 10 nM

## C=C1[C@H](O)CC(=C/C=C2\CCC[C@]3(C)[C@@H]([C@H](C)CN4CC[C@H](CC(F)F)C4)CC[C@@H]23)C[C@H]1O [Compound B040, (1R,3R)-5-(2-((1R,3aS,7aR,E)-1-((S)-1-((R)-3-(2,2-difluoroethyl)pyrrolidin-1-yl)propan-2-yl)-7a-methyloctahydro-4H-inden-4-ylidene)ethylidene)-2-methylenecyclohexane-1,3-diol]
[2]
  activation at 1 µM: ≥ 20%
[3]; Test 1
  Mean (number of MBP-positive cells/number of Hoechst33342-positive cells): 0.59
[4]
  Concentration in blood (mean ± SD) at brain Cmax: 70 ± 10 nM
  Concentration in brain (mean ± SD) at brain Cmax: 153 ± 35 pmol/g
  Kp: 2.18
Human VDR
  EC50: 1 to 10 nM

## C[C@H](CN1CC[C@H](OC(F)F)C1)[C@H]1CC[C@H]2/C(=C/C=C3C[C@@H](O)C[C@H](O)C3)CCC[C@]12C [Compound B051, (1R,3R)-5-(2-((1R,3aS,7aR,E)-1-((S)-1-((S)-3-(difluoromethoxy)pyrrolidin-1-yl)propan-2-yl)-7a-methyloctahydro-4H-inden-4-ylidene)ethylidene)cyclohexane-1,3-diol]
[2]
  activation at 1 µM: ≥ 20%
[3]; Test 2
  Mean (number of MBP-positive cells/number of Hoechst33342-positive cells): 0.45
[4]
  Concentration in blood (mean ± SD) at brain Cmax: 304 ± 35 nM
  Concentration in brain (mean ± SD) at brain Cmax: 644 ± 92 pmol/g
  Kp: 2.12
Human VDR
  EC50: 10 to 100 nM

## C=C1[C@H](O)CC(=C/C=C2\CCC[C@]3(C)[C@@H]([C@H](C)CN4CC[C@H](OCC(F)F)C4)CC[C@@H]23)C[C@H]1O [Compound B055, (1R,3R)-5-(2-((1R,3aS,7aR,E)-1-((S)-1-((S)-3-(2,2-difluoroethoxy)pyrrolidin-1-yl)propan-2-yl)-7a-methyloctahydro-4H-inden-4-ylidene)ethylidene)-2-methylenecyclohexane-1,3-diol]
[2]
  activation at 1 µM: ≥ 20%
[3]; Test 2
  Mean (number of MBP-positive cells/number of Hoechst33342-positive cells): 0.56
[4]
  Concentration in blood (mean ± SD) at brain Cmax: 309 ± 17 nM
  Concentration in brain (mean ± SD) at brain Cmax: 327 ± 28 pmol/g
  Kp: 1.06
Human VDR
  EC50: 1 to 10 nM

## C[C@H](CN1CCOCC1)[C@H]1CC[C@H]2/C(=C/C=C3C[C@@H](O)C[C@H](O)C3)CCC[C@]12C [Compound D004, (1R,3R)-5-(2-((1R,3aS,7aR,E)-7a-methyl-1-((S)-1-morpholinopropan-2-yl)-octahydro-4H-inden-4-ylidene)ethylidene)cyclohexane-1,3-diol]
[1]; 10 nM
  Gal/C positive ratio Average value: 12.61
[1]; 100 nM
  Gal/C positive ratio Average value: 15.55
[1]; 1000 nM
  Gal/C positive ratio Average value: 16.76

## C=C1[C@H](O)CC(=C/C=C2\CCC[C@]3(C)[C@@H]([C@H](C)CCN4CCOCC4)CC[C@@H]23)C[C@H]1O [Compound D024, (1R,3R)-5-(2-((1R,3aS,7aR,E)-7a-methyl-1-((R)-4-morpholinobutan-2-yl)octahydro-4H-inden-4-ylidene)ethylidene)-2-methylenecyclohexane-1,3-diol]
[2]
  activation at 1 µM: ≥ 20%
[3]; Test 2
  Mean (number of MBP-positive cells/number of Hoechst33342-positive cells): 0.39
[4]
  Concentration in blood (mean ± SD) at brain Cmax: 368 ± 26 nM
  Concentration in brain (mean ± SD) at brain Cmax: 726 ± 88 pmol/g
  Kp: 1.97

## C[C@H](CCN1CCOC[C@H]1C)[C@H]1CC[C@H]2/C(=C/C=C3C[C@@H](O)C[C@H](O)C3)CCC[C@]12C [Compound D042, (1R,3R)-5-(2-((1R,3aS,7aR,E)-7a-methyl-1-((R)-4-((R)-3-methylmorpholino)butan-2-yl)octahydro-4H-inden-4-ylidene)ethylidene)cyclohexane-1,3-diol]
[1]; 10 nM
  Gal/C positive ratio Average value: 12.25
[1]; 100 nM
  Gal/C positive ratio Average value: 14.27
[1]; 1000 nM
  Gal/C positive ratio Average value: 15.80
Human VDR
  EC50: 10 to 100 nM
